# Measured values: patent US11078202B2, “β-lactamase inhibitor and use thereof” (priority 2018, dated 2021)
# Where a name gives a salt, the structure may show the parent alone. Read-outs that look alike come from different tables or passages of the source.
# Columns and labels:
# Format in all cases: cell-based
# [1] = test system: Klebsiella pneumoniae XNWB 0002 (KPC-2, SHV-5); experiment: microbe, parasite or virus in culture
# Procedure: (§1) The bacterial strains used for the minimum inhibitory concentration (MIC) test were frozen in a −80° C. ULT freezer and thawed 2 days before use. A small amount of frozen bacterial strains were scraped using a sterile inoculating loop, streaked onto a TSA solid culture dish for inoculation, and then cultured for 20-24 h at 35±2° C. in a normal atmospheric environment.
# (§2) 5-10 colonies with similar morphology were picked from the culture dish using a sterile inoculating loop and then re-streaked onto a suitable solid culture dish. Then the dish was placed into a normal incubator for culture for 20-24 h at 35±2° C.
# (§3) 5-10 single bacterial colonies were picked from the solid culture dish, resuspended in 500 μL of 0.9% NaCl, and adjusted to an OD600 of 0.1-0.15 with a spectrophotometer.
# (§4) The bacteria were then diluted 300-fold with 1.1×CAMHB.
# (§5) After addition, the 6 assay plates were covered by sterile covers. The mixtures in the assay plates were centrifuged by a centrifuge at 1000 rpm for 30 s, and mixed uniformly by oscillating with a microplate oscillator at 800 rpm for 1 min, and then cultured in a common incubator for 16-20 h at 35±2° C.
# (§6) The minimum inhibitory concentration of each compound was recorded by reference to guidelines from the Clinical and Laboratory Standards Institute.
# (§7) The minimum inhibitory concentrations of the compounds of the present invention and antibiotics (imipenem, ceftazidime, and ampicillin) against 11 strains of bacteria were tested in this study by reference to the medium microdilution method as indicated by the Clinical and Laboratory Standards Institute. The effect of the test compounds in combination with imipenem, ceftazidime, and ampicillin was also tested. Compounds were diluted two-fold in 96-well plates from the highest detection concentration of 64 μg/mL. The test compounds were tested in combination with a fixed concentration of imipenem (4 μg/mL), ceftazidime (8 μg/mL), and ampicillin (8 μg/mL). The bacterial inocula in the assay plates were resuscitated from TSA and diluted in CAMHB, while growth controls (GC wells) and sterile controls (SC wells) were set up in the assay plates.
# [2] = test system: Klebsiella pneumoniae XNWB 0004 (KPC-2, SHV-12); experiment: microbe, parasite or virus in culture
# Procedure: as §1, §2, §3, §4, §5, §6, §7
# [3] = test system: Acinetobacter baumannii XNWB 0007 (AmpC); experiment: MIC of antibiotics alone, broth microdilution; settings: antibiotic alone, A. baumannii XNWB 0007, β-lactamase AmpC
# Procedure: as §1, §2, §3, §4, §5, §6, §7
# [4] = test system: Enterobacter aerogenes XNWB 0011 (TEM-10); experiment: MIC of antibiotics alone, broth microdilution; settings: Klebsiella aerogenes; antibiotic alone; E. aerogenes XNWB 0011, β-lactamase TEM-10
# Procedure: as §1, §2, §3, §4, §5, §6, §7
# [5] = test system: Escherichia coli XNWB 0009 (SHV-5A); experiment: MIC of antibiotics alone, broth microdilution
# Procedure: as §1, §2, §3, §4, §5, §6, §7
# [6] = test system: Escherichia coli XNWB 0010 (SHV-2); experiment: MIC of antibiotics alone, broth microdilution; settings: antibiotic alone, E. coli XNWB 0010, β-lactamase SHV-2
# Procedure: as §1, §2, §3, §4, §5, §6, §7
# [7] = test system: Klebsiella pneumoniae XNWB 0001 (KPC-1/2); experiment: MIC of antibiotics alone, broth microdilution; settings: antibiotic alone, K. pneumoniae XNWB 0001, β-lactamase KPC-1/2
# Procedure: as §1, §2, §3, §4, §5, §6, §7
# [8] = test system: Klebsiella pneumoniae XNWB 0003 (KPC-11, SHV-12); experiment: MIC of antibiotics alone, broth microdilution
# Procedure: as §1, §2, §3, §4, §5, §6, §7
# [9] = test system: Klebsiella pneumoniae XNWB 0005 (KPC-3); experiment: MIC of antibiotics alone, broth microdilution
# Procedure: as §1, §2, §3, §4, §5, §6, §7
# [10] = test system: Klebsiella pneumoniae XNWB 0006 (CTX-M-15, SHV); experiment: MIC of antibiotics alone, broth microdilution
# Procedure: as §1, §2, §3, §4, §5, §6, §7
# [11] = test system: Pseudomonas aeruginosa XNWB 0008 (AmpC); experiment: MIC of antibiotics alone, broth microdilution
# Procedure: as §1, §2, §3, §4, §5, §6, §7
# [12] = test system: Acinetobacter baumannii XNWB 0007; experiment: MIC assay of test compounds combined with ceftazidime (8 μg/mL); settings: ceftazidime 8 μg/mL fixed
# Outline: (§8)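 Strains were revived from −80 °C stocks on TSA, subcultured, and single colonies were resuspended in saline to OD600 0.1-0.15. After a 300-fold dilution in 1.1×CAMHB, cells were combined with diluted compound and a fixed antibiotic. Growth was assessed after 16-20 h at 35±2 °C.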
# [13] = test system: Klebsiella pneumoniae XNWB 0001; experiment: as above; settings: ceftazidime 8 μg/mL fixed
# Outline: as §8
# [14] = test system: Klebsiella pneumoniae XNWB 0002; experiment: as above; settings: ceftazidime 8 μg/mL fixed
# Outline: as §8
# [15] = test system: Klebsiella pneumoniae XNWB 0003; experiment: as above; settings: ceftazidime 8 μg/mL fixed
# Outline: as §8
# [16] = test system: Klebsiella pneumoniae XNWB 0004; experiment: as above; settings: ceftazidime 8 μg/mL fixed
# Outline: as §8
# [17] = test system: Klebsiella pneumoniae XNWB 0005; experiment: as above; settings: ceftazidime 8 μg/mL fixed
# Outline: as §8
# [18] = test system: Klebsiella pneumoniae XNWB 0006; experiment: as above; settings: ceftazidime 8 μg/mL fixed
# Outline: as §8
# [19] = test system: Pseudomonas aeruginosa XNWB 0008; experiment: as above; settings: ceftazidime 8 μg/mL fixed
# Outline: as §8
# [20] = test system: Acinetobacter baumannii XNWB 0007; experiment: MIC assay of test compounds combined with imipenem (4 μg/mL); settings: imipenem 4 μg/mL fixed
# Outline: as §8
# [21] = test system: Klebsiella pneumoniae XNWB 0001; experiment: as above; settings: imipenem 4 μg/mL fixed
# Outline: as §8
# [22] = test system: Klebsiella pneumoniae XNWB 0002; experiment: as above; settings: imipenem 4 μg/mL fixed
# Outline: as §8
# [23] = test system: Klebsiella pneumoniae XNWB 0003; experiment: as above; settings: imipenem 4 μg/mL fixed
# Outline: as §8
# [24] = test system: Klebsiella pneumoniae XNWB 0004; experiment: as above; settings: imipenem 4 μg/mL fixed
# Outline: as §8
# [25] = test system: Klebsiella pneumoniae XNWB 0005; experiment: as above; settings: imipenem 4 μg/mL fixed
# Outline: as §8
# [26] = test system: Klebsiella pneumoniae XNWB 0006; experiment: as above; settings: imipenem 4 μg/mL fixed
# Outline: as §8
# [27] = test system: Pseudomonas aeruginosa XNWB 0008; experiment: as above; settings: imipenem 4 μg/mL fixed
# Outline: as §8
# [28] = test system: Enterobacter aerogenes XNWB 0011; experiment: MIC assay of test compounds combined with ampicillin (8 μg/mL); settings: ampicillin 8 μg/mL fixed
# [29] = test system: Escherichia coli XNWB 0009; experiment: as above; settings: ampicillin 8 μg/mL fixed
# [30] = test system: Escherichia coli XNWB 0010; experiment: as above; settings: ampicillin 8 μg/mL fixed
# [31] = antibiotic alone, K. pneumoniae XNWB 0003, β-lactamase KPC-11, SHV-12, read-out: MIC
# [32] = antibiotic alone, K. pneumoniae XNWB 0005, β-lactamase KPC-3, read-out: MIC
# [33] = antibiotic alone, P. aeruginosa XNWB 0008, β-lactamase AmpC, read-out: MIC
Structure (SMILES),MIC [1],MIC [2],MIC [3],MIC [4],MIC [5],MIC [6],MIC [7],"MIC [8, 31]","MIC [9, 32]","MIC [11, 33]",MIC [10],The minimum concentration of test compounds combined with ceftazidime (8 μg/mL) for bacteriostasis [12],The minimum concentration of test compounds combined with ceftazidime (8 μg/mL) for bacteriostasis [13],The minimum concentration of test compounds combined with ceftazidime (8 μg/mL) for bacteriostasis [14],The minimum concentration of test compounds combined with ceftazidime (8 μg/mL) for bacteriostasis [15],The minimum concentration of test compounds combined with ceftazidime (8 μg/mL) for bacteriostasis [16],The minimum concentration of test compounds combined with ceftazidime (8 μg/mL) for bacteriostasis [17],The minimum concentration of test compounds combined with ceftazidime (8 μg/mL) for bacteriostasis [18],The minimum concentration of test compounds combined with ceftazidime (8 μg/mL) for bacteriostasis [19],The minimum concentration of test compounds combined with imipenem (4 μg/mL) for bacteriostasis [20],also measured
CC1(C)S[C@@H]2[C@H](NC(=O)[C@H](N)c3ccccc3)C(=O)N2[C@H]1C(=O)O [Ampicillin],> 32 µg/mL,> 32 µg/mL,> 32 µg/mL,> 32 µg/mL,> 32 µg/mL,> 32 µg/mL,> 32 µg/mL,> 32 µg/mL,> 32 µg/mL,> 32 µg/mL,,,,,,,,,,,"MIC ([10]; antibiotic alone, K. pneumoniae XNWB 0006, β-lactamase CTX-M-15, SHV, read-out: MIC): > 32 µg/mL"
CC(C)(O/N=C(\C(=O)N[C@@H]1C(=O)N2C(C(=O)[O-])=C(C[n+]3ccccc3)CS[C@H]12)c1csc(N)n1)C(=O)O [Ceftazidime],128 µg/mL,> 128 µg/mL,64 µg/mL,0.5 to 1 µg/mL,16 to 32 µg/mL,4 to 16 µg/mL,64 to 128 µg/mL,,,,> 128 µg/mL,,,,,,,,,,MIC [8]: > 128 µg/mL; MIC [9]: > 128 µg/mL; MIC [11]: 128 µg/mL
"O=C1N2C[C@H](N1OS(=O)(=O)O)C1(CC1)C[C@H]2c1cc(C2CCNCC2)on1 [Example 43, (1R,4S)-6-oxo-4-(5-(piperidin-4-yl)isoxazol-3-yl)-5,7-diazaspiro[bicyclo[3.2.1]octane-2,1′-cyclopropan]-7-yl sulfate]",,,,,,,,,,,,C (C: 16-128 μg/mL),A (A: <8 μg/mL),A (A: <8 μg/mL),B (B: 8-16 μg/mL),B (B: 8-16 μg/mL),A (A: <8 μg/mL),A (A: <8 μg/mL),B (B: 8-16 μg/mL),C (C: 16-128 μg/mL),The minimum concentration of test compounds combined with imipenem (4 μg/mL) for bacteriostasis [21]: A (A: <8 μg/mL); The minimum concentration of test compounds combined with imipenem (4 μg/mL) for bacteriostasis [22]: A (A: <8 μg/mL); The minimum concentration of test compounds combined with imipenem (4 μg/mL) for bacteriostasis [23]: A (A: <8 μg/mL); The minimum concentration of test compounds combined with imipenem (4 μg/mL) for bacteriostasis [24]: A (A: <8 μg/mL); The minimum concentration of test compounds combined with imipenem (4 μg/mL) for bacteriostasis [25]: A (A: <8 μg/mL); The minimum concentration of test compounds combined with imipenem (4 μg/mL) for bacteriostasis [26]: A (A: <8 μg/mL); The minimum concentration of test compounds combined with imipenem (4 μg/mL) for bacteriostasis [27]: A (A: <8 μg/mL); The minimum concentration of test compounds combined with ampicillin (8 μg/mL) for bacteriostasis [28]: B (B: 8-16 μg/mL); The minimum concentration of test compounds combined with ampicillin (8 μg/mL) for bacteriostasis [29]: A (A: <8 μg/mL); The minimum concentration of test compounds combined with ampicillin (8 μg/mL) for bacteriostasis [30]: A (A: <8 μg/mL)
"O=C1N2C[C@H](N1OS(=O)(=O)O)C1(CC1)C[C@H]2c1cc(C2CCNC2)on1 (stereo partly drawn) [Example 45, (1R,4S)-6-oxo-4-(5-(pyrrolidin-3-yl)isoxazol-3-yl)-5,7-diazaspiro[bicyclo[3.2.1]octane-2,1′-cyclopropan]-7-yl sulfate]",,,,,,,,,,,,C (C: 16-128 μg/mL),A (A: <8 μg/mL),A (A: <8 μg/mL),A (A: <8 μg/mL),B (B: 8-16 μg/mL),A (A: <8 μg/mL),A (A: <8 μg/mL),B (B: 8-16 μg/mL),C (C: 16-128 μg/mL),The minimum concentration of test compounds combined with imipenem (4 μg/mL) for bacteriostasis [21]: A (A: <8 μg/mL); The minimum concentration of test compounds combined with imipenem (4 μg/mL) for bacteriostasis [22]: A (A: <8 μg/mL); The minimum concentration of test compounds combined with imipenem (4 μg/mL) for bacteriostasis [23]: A (A: <8 μg/mL); The minimum concentration of test compounds combined with imipenem (4 μg/mL) for bacteriostasis [24]: A (A: <8 μg/mL); The minimum concentration of test compounds combined with imipenem (4 μg/mL) for bacteriostasis [25]: A (A: <8 μg/mL); The minimum concentration of test compounds combined with imipenem (4 μg/mL) for bacteriostasis [26]: A (A: <8 μg/mL); The minimum concentration of test compounds combined with imipenem (4 μg/mL) for bacteriostasis [27]: A (A: <8 μg/mL); The minimum concentration of test compounds combined with ampicillin (8 μg/mL) for bacteriostasis [28]: A (A: <8 μg/mL); The minimum concentration of test compounds combined with ampicillin (8 μg/mL) for bacteriostasis [29]: A (A: <8 μg/mL); The minimum concentration of test compounds combined with ampicillin (8 μg/mL) for bacteriostasis [30]: A (A: <8 μg/mL)
C[C@@H](O)[C@H]1C(=O)N2C(C(=O)O)=C(SCCN=CN)C[C@H]12 [Imipenem],32 to 64 µg/mL,64 µg/mL,32 to 64 µg/mL,0.5 to 1 µg/mL,0.125 to 0.5 µg/mL,≤ 0.125 µg/mL,64 to 128 µg/mL,8 to 16 µg/mL,32 to 64 µg/mL,16 to 32 µg/mL,0.125 to 0.5 µg/mL,,,,,,,,,,
